The results in this text go back to ChEMBL document CHEMBL1138536, “A Ser678Pro substitution in Fks1p confers resistance to echinocandin drugs in Aspergillus fumigatus” (Antimicrob Agents Chemother, 2007).

Test [1] concerns Aspergillus fumigatus. Briefly: Antifungal activity against Aspergillus fumigatus expressing fks1 gene EMFR-S678P mutant after 24 to 48 hrs by broth dilution susceptibility test. The test is classed as functional. The conditions noted are these: read-out: MEC. On the technique in general: In broth dilution the organism is exposed to a series of concentrations in liquid medium.
Test [2] is described as follows: Inhibition of 1,3-beta-D-glucan synthase EMFR-S678P/WT mutant from Aspergillus fumigatus assessed as incorporation of [3H]glucose.
For test [3], the system named is Aspergillus fumigatus. Briefly: Antifungal activity against Aspergillus fumigatus expressing fks1 gene EMFR-S678P/WT mutant after 24 to 48 hrs by broth dilution susceptibility test. Conditions: read-out: MEC. The test is classed as functional.
In test [4] the test system is Aspergillus fumigatus. Briefly: Antifungal activity against Aspergillus fumigatus expressing wild-type fks1 gene KU80delta after 24 to 48 hrs by broth dilution susceptibility test. The test is classed as functional. Conditions: read-out: MEC.
Test [5] in a line: Inhibition of wild-type 1,3-beta-D-glucan synthase KU80delta from Aspergillus fumigatus assessed as incorporation of [3H]glucose.
Test [6] concerns Aspergillus fumigatus. As to the kind of experiment: Ratio of IC50 for Aspergillus fumigatus 1,3-beta-D-glucan synthase EMFR-S678P mutant to IC50 for Aspergillus fumigatus wild-type 1,3-beta-D-glucan synthase KU80delta.
The target in the next test is Fksp (Neosartorya fumigata (Aspergillus fumigatus), UniProt P87204, S678P). Briefly: Inhibition of 1,3-beta-D-glucan synthase EMFR-S678P mutant from Aspergillus fumigatus assessed as incorporation of [3H]glucose.

Molecules are shown by their SMILES. Values after ≈ are worked out from the molar mass of the structure shown. Numbered stars: 1 amine (or outer) side, 2 acyl side, 3 side chain; on linkers, the order of the positions; unused ones are H or OH. Bridge positions count the residues as written; N and C are the ends. Square brackets hold non-standard residues; d marks the D form. Peptide text beside a SMILES is read from it. * marks the point of attachment. hTyr(3S-OH,4S-OH,3'-OSO3H) = N[C@H](C(=O)O)[C@H](O)[C@@H](O)c1ccc(O)c(OS(=O)(=O)O)c1; pTerphenylCO(4''-OnC5H11) = CCCCCOc1ccc(-c2ccc(-c3ccc(C(=O)*)cc3)cc2)cc1; Orn(4R-OH,5R-OH) = O=C([C@H](C[C@@H](O)[C@@H](O)N[*:3])N[*:1])[*:2]; hTyr(3S-OH,4S-OH) = N[C@H](C(=O)O)[C@H](O)[C@@H](O)c1ccc(O)cc1; Pro(3S-OH,4S-Me) = C[C@H]1CN[C@H](C(=O)O)[C@H]1O; X1 = CCCCCOc1ccc(-c2cc(-c3ccc(C(=O)*)cc3)no2)cc1; Gln(3R-OH) = NC(=O)C[C@@H](O)[C@H](N)C(=O)O; Hyp = O=C(O)[C@@H]1C[C@@H](O)CN1 Where only a bound is given, the exact number is not on record here.

Chain of Fksp (P87204 entry or part of it S678P): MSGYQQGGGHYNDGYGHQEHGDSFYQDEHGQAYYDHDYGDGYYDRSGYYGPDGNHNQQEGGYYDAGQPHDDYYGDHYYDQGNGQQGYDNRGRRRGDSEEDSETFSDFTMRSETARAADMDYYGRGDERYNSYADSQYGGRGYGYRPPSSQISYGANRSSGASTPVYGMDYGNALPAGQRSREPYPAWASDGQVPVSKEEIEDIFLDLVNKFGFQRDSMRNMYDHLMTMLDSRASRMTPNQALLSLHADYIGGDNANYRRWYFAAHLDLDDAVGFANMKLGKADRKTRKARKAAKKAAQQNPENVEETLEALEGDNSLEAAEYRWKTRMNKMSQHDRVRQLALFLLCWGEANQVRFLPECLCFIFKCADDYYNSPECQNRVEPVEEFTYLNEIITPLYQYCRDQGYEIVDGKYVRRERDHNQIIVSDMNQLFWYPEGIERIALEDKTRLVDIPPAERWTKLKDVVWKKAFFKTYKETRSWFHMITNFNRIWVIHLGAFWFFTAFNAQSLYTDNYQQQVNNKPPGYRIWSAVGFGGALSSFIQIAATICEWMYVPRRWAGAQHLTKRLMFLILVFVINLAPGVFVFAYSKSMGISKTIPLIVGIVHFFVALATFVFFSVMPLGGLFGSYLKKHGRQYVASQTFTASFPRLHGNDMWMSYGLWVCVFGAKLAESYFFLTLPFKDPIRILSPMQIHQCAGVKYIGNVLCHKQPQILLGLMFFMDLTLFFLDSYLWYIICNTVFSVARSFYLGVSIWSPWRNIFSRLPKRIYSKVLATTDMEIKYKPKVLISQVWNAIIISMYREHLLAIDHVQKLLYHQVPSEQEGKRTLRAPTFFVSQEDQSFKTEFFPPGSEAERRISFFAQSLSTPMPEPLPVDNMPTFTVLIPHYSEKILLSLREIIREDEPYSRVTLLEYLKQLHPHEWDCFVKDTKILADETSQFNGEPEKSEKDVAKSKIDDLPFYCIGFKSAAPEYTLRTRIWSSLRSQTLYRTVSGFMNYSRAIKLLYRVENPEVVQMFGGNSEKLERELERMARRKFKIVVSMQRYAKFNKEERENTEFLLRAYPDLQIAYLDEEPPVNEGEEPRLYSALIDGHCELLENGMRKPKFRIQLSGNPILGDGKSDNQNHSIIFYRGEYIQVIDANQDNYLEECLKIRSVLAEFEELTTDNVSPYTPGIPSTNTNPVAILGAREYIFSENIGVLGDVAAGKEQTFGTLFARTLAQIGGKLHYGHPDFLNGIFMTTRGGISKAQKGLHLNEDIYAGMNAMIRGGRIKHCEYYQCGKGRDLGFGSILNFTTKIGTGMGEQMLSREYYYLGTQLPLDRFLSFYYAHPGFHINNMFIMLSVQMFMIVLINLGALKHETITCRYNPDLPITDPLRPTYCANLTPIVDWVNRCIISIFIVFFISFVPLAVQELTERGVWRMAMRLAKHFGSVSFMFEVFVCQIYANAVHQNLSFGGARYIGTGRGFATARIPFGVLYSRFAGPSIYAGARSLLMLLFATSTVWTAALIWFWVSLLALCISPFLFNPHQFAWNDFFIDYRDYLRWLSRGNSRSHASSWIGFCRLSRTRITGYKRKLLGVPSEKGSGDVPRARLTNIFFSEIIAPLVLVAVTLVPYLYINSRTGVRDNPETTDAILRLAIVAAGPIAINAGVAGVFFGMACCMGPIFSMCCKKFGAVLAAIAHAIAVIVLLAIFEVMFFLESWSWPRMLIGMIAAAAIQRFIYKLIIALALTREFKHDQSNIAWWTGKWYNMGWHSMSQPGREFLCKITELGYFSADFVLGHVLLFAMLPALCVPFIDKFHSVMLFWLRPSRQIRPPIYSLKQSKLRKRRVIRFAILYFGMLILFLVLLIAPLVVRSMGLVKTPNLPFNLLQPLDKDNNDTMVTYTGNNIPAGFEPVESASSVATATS

Consider `CCCCCOc1ccc(-c2cc(-c3ccc(C(=O)N[C@H]4C[C@@H](O)[C@@H](O)NC(=O)[C@@H]5[C@@H](O)[C@@H](C)CN5C(=O)[C@H]([C@H](O)CC(N)=O)NC(=O)[C@H]([C@H](O)[C@@H](O)c5ccc(O)c(OS(=O)(=O)O)c5)NC(=O)[C@@H]5C[C@@H](O)CN5C(=O)[C@H]([C@@H](C)O)NC4=O)cc3)no2)cc1` [MICAFUNGIN] (X1-[Orn(4R-OH,5R-OH)]T[Hyp][hTyr(3S-OH,4S-OH,3'-OSO3H)][Gln(3R-OH)][Pro(3S-OH,4S-Me)]; lactam 1-C), for which the minimal effective concentration is greater than 16 µg/mL in the test on Aspergillus fumigatus [1], 8 µg/mL in the test with Aspergillus fumigatus [3] and 0.015 µg/mL in the test with Aspergillus fumigatus [4]. Further, the 50% inhibitory concentration (IC50) is 0.5 ng/mL (≈ 0.394 nM) in test [2], 0.63 ng/mL (≈ 0.496 nM) in test [5] and 9.93 nM at Fksp. For the same compound, the Ratio IC50 in the test on Aspergillus fumigatus [6] came to 20.
In the case of `CCCCCOc1ccc(-c2ccc(-c3ccc(C(=O)N[C@H]4C[C@@H](O)[C@@H](O)NC(=O)[C@@H]5[C@@H](O)[C@@H](C)CN5C(=O)[C@H]([C@@H](C)O)NC(=O)[C@H]([C@H](O)[C@@H](O)c5ccc(O)cc5)NC(=O)[C@@H]5C[C@@H](O)CN5C(=O)[C@H]([C@@H](C)O)NC4=O)cc3)cc2)cc1` [ANIDULAFUNGIN] ({pTerphenylCO(4''-OnC5H11)}-[Orn(4R-OH,5R-OH)]T[Hyp][hTyr(3S-OH,4S-OH)]T[Pro(3S-OH,4S-Me)]; lactam 1-C), the results for the minimal effective concentration in the test with Aspergillus fumigatus [1], in the test with Aspergillus fumigatus [3] and in the test with Aspergillus fumigatus [4] were 16 µg/mL, 8 µg/mL and 0.015 µg/mL, respectively. The IC50 in test [2] was 0.37 ng/mL (≈ 0.324 nM); in test [5], 0.24 ng/mL (≈ 0.21 nM); on Fksp, 25.6 nM. The Ratio IC50 in the test with Aspergillus fumigatus [6] came to 122.
For the compound `CC[C@H](C)C[C@H](C)CCCCCCCCC(=O)N[C@H]1C[C@@H](O)[C@@H](NCCN)NC(=O)[C@@H]2[C@@H](O)CCN2C(=O)[C@H]([C@H](O)CCN)NC(=O)[C@H]([C@H](O)[C@@H](O)c2ccc(O)cc2)NC(=O)[C@@H]2C[C@@H](O)CN2C(=O)[C@H]([C@@H](C)O)NC1=O` [CASPOFUNGIN], the minimal effective concentration in the test with Aspergillus fumigatus [1] is greater than 16 µg/mL; in the test with Aspergillus fumigatus [3], greater than 16 µg/mL; in the test on Aspergillus fumigatus [4] it was 0.25 µg/mL. The results for the IC50 (in test [2]; in test [5]; on Fksp) were 0.12 ng/mL (≈ 0.11 nM), 0.91 ng/mL (≈ 0.832 nM) and 100 nM, respectively. Moreover, the Ratio IC50 in the test on Aspergillus fumigatus [6] was 121.

One may read the IC50 as the concentration at which inhibition is half-maximal.
